# Values of other authors as cited in US20020038007A1, “Method of finding agonist and antagonist to human 11cb splice variant” (priority 1996, published 2002).
# Legend:
# [1] = injection into lateral ventricles of rats
# [2] = intracerebroventricular injection; Presse, F et al Neuroscience 1996
substance,measurement,setting,value
H-Asp-Phe-Asp-Met-Leu-Arg-Cys-Met-Leu-Gly-Arg-Val-Tyr-Arg-Pro-Cys-Trp-Gln-Val-OH (H-DFDMLRCMLGRVYRPCWQV-OH; cysteine pairing not given here) [MCH],food consumption,[1],increased food consumption
same,feeding,[2],inhibit feeding
